“Also recorded” adds a separate entry of the source.
Key:
C57BL/6 female mouse = test: Matrigel plug assay, in vivo angiogenesis; settings: 1 μg/ml in Matrigel, subcutaneous, after 7 days
Description: In order to examine the in vivo angiogenesis-promoting activity of F2 peptide, a Matrigel plug assay (Rikitake, Y et al., Arterioscler Thromb Vasc Biol 20, 1006-1012 (2000)) was carried out. Together with any one of VEGF-A (50 ng/ml), F2 peptide (1 μg/ml) or the control peptide (1 μg/ml) or without adding any sample (negative control), Matrigel (0.5 ml, BD Biosciences, Franklin Lakes, N.J.) depleted of growth factor was mixed with 40 U/ml heparin (Aventis Pharma, Tokyo, JP). Then, each mixture was injected subcutaneously into a C57BL/6 female mouse obtained from Oriental Bioscience (Kyoto, JP). After 7 days, the mouse was sacrificed, and the plug was recovered and fixed in methanol. For immune staining, the section was incubated overnight at 4° C. with anti-CD31 (PECAM-1) monoclonal antibody (diluted at 1:100, BD Pharmigen, San Diego, Calif.) and then incubated for 2 hours with Alexa Flour 488 secondary antibody (1:1000, Molecular Probes, Eugene, Oreg.) before photographing. Every experimental protocol was approved by Animal Committee, Medical Department, Graduate School, Osaka University, JP.

[1] = system: transforming growth factor (TGF-β) mRNA; test: Growth factor mRNA expression level: TGF-β; assay type: cell-based
[2] = system: ERK (extracellular signal-related kinase); test: Effect on ERK activity; settings: data are not shown
microorganism = test: Antimicrobial activity, minimum inhibitory concentration on microtiter plate; assay type: cell-based; settings: Example 7, method only, MIC not given
Description: The antimicrobial activity is evaluated according to US National Committee for Clinical Laboratory Standard (NCCL Documents M7-A3). That is, the minimum concentration of the peptide at which microbial growth is inhibited is determined on a microtiter plate. A microorganism is cultured for 16 hours and then the absorbance at A600 thereof measured. From correlation of predetermined turbidity with colony forming unit (CFU), the […] is diluted with a medium to attain a specified CFU. Each microorganism strain is added at about 5×10^5 CFU/ml (final concentration). 5 mM aqueous solution of each peptide and 1.6 mM solution using a medium are prepared and used in serial dilution. 50 μl peptide at each concentration is pipetted into each well of a microtiter plate into which 50 μl/well microbial suspension has been pipetted (the final concentration of the peptide is 3.1 μM to 800 μM). A well to which the peptide was not added is used as the negative control. […] The concentration shown as results is MIC (μM). According to this method, the antimicrobial activity of the F2 peptide is determined.

HEAC endothelial cells = test: Endothelial cell migration, modified Boyden chamber; assay type: cell-based, human; settings: for migration % Increase: 4 hours
Description: A polyvinyl pyrrolidone (PVP)-free polycarbonate membrane having […] (Neuro Probe Inc., Gaithersburg, Md.) was coated overnight with 0.1% gelatin and then washed with phosphate buffered saline to remove an excess of the gelatin coating. Then, 28 μl growth factor-free EBM2 medium supplemented with 1% FBS was arranged in a lower chamber, and the membrane was arranged on the lower chamber. […] The Boyden chamber was incubated at 37° C. for 4 hours. After incubation, the membrane was removed and the cells on the upper side of the membrane were removed. The cells on the lower side of the membrane were stained with Diff-Quick (Sysmex, Hyogo Pref., JP). The cells in each of randomly selected 8 visual fields (×100) were counted.

[3] = system: endothelial nitric oxide synthase (eNOS) mRNA; test: Growth factor mRNA expression level: eNOS; assay type: cell-based
[4] = system: phosphatidyl inositol-3-kinase/Akt (PI3K/Akt); test: Effect on PI3K/Akt activity; settings: data are not shown
c-fos promoter = c-fos promoter assay (c-fos-Luci luciferase); assay type: cell-based, bovine; settings: FIG. 8
Description: To further confirm the proliferation ability, an assay using a promoter of proto-oncogene c-fos, which is activated in the earliest stage of cell proliferation, was carried out. The gene c-fos-Luci having luciferase ligated under this promoter, and a candidate gene, were introduced in a weight ratio of 1:1 by lipofection into bovine vascular endothelial cells, and after 24 to 48 hours, the luciferase activity was measured.

[5] = system: connective tissue growth factor (CTGF) mRNA; test: Growth factor mRNA expression level: CTGF; assay type: cell-based
[6] = system: fibroblast growth factor (FGF-2) mRNA; test: Growth factor mRNA expression level: FGF-2; assay type: cell-based
HAEC = test: MTS assay of endothelial cell proliferation with added peptide; assay type: cell-based, human; settings: for endothelial proliferation Increase [times]: MTS, Table 3
Description: F2 peptide was synthesized and then contacted in a varying amount with HAEC, and the ability thereof to proliferate the cells was examined by MTS assay. The MTS assay is a modification of the MTT assay, and is a method of measuring living cells based on a reaction of reducing tetrazolium salt (MTS) by living cells in culture, into a colored product formazan. Specifically, this assay is carried out as follows: • HAEC was inoculated onto a 96-well plate at a density of 750 cells/well. • 2 μl/well of each sample was added to 100 μl/well endothelial cell medium (1% FBS, without EGF). 2 μl/well was added every day (until Day 6) (the medium was not exchanged). • 20 μl measurement solution (Cell Titer 96 AQueous One Solution Cell Proliferation Assay (Promega)) was added to each well and mixed with 100 μl of the endothelial cell medium, and the old medium was removed by suction. A mixed suspension of the measurement solution and the cells was put in a volume of 120 μl/well and then incubated for 1 to 5 hours in a CO2 incubator. • The absorbance at 490 nm was measured with a plate reader.
The sample group (8 wells each) is as follows: • NC: Only EBM medium (endothelial cell medium) containing 1% FBS. The other samples were cultured by adding various peptides to this medium containing serum. • VEGF-A: Recombinant VEGF-A (KURABO) was added at a final concentration of 10 ng/ml. • F2-1: F2 peptide was added at a final concentration of 1 ng/ml. • F2-10: F2 peptide was added at a final concentration of 10 ng/ml. • F2-100: F2 peptide was added at a final concentration of 100 ng/ml. • F2-1000: F2 peptide was added at a final concentration of 1000 ng/ml.

“MLSLIFLHRLKSMRKRLDRKLRFWHRKNYP (listed as Homo sapiens) [F2 peptide]” was tested, and the “newly formed blood vessels containing intact erythrocytes in the plug” value (C57BL/6 female mouse; FIG. 12) was “more newly formed blood vessels containing intact erythrocytes than in the mouse receiving a Matrigel containing the control peptide”, the “newly formed blood vessels by immune staining with anti-CD31 antibody” value (C57BL/6 female mouse; FIG. 13) was “more newly formed blood vessels” and the “effect on mRNA level of TGF-β (in words)” value [1] was “did not have any effect”. For the same sequence, the “TGF-b mRNA Increased Amount [times]” value ([1]; 24 hrs) was 2.6 times, the “TGF-b mRNA Increased Amount [times]” value ([1]; 48 hrs) was 13.6 times and the “TGF-b mRNA Increased Amount [times]” value ([1]; 72 hrs) was 1.6 times. The “effect on ERK activity” value [2] was “did not have any direct effect”, the antimicrobial activity (microorganism) was “has an antimicrobial activity” and the “migration % Increase” value (HEAC endothelial cells; 10 ng/ml) was 88.5%. For the same sequence, the “migration % Increase” value (HEAC endothelial cells; 100 ng/ml) was 102.5%, the “migration % Increase” value (HEAC endothelial cells; 1 μg/ml) was 129.8% and the “cell migration activity (in words)” value (HEAC endothelial cells; F2 0.01 to 1 μg/ml, control peptide 1 μg/ml, VEGF 50 ng/ml, FIG. 10) was “significantly increased in a concentration-dependent manner; also recorded: higher than that of VEGF (50 ng/ml)”. The “effect on mRNA level of eNOS (in words)” value [3] was “did not have any effect”, the “eNOS mRNA Increased Amount [times]” value ([3]; 24 hrs) was 0.1 times and the “eNOS mRNA Increased Amount [times]” value ([3]; 48 hrs) was 6.1 times. For the same sequence, the “eNOS mRNA Increased Amount [times]” value ([3]; 72 hrs) was 0.7 times, the “effect on PI3K/Akt activity” value [4] was “did not have any direct effect” and the “activity in c-fos promoter assay of gene fragments in pCDNA3.1” value (c-fos promoter) was “same activity as that of VEGF”. For the same sequence, the “effect on mRNA level of CTGF (in words)” value [5] was “did not have any effect”, the “CTGF mRNA Increased Amount [times]” value ([5]; 24 hrs) was 0.2 times and the “CTGF mRNA Increased Amount [times]” value ([5]; 48 hrs) was 1.1 times. The “CTGF mRNA Increased Amount [times]” value ([5]; 72 hrs) was 0.5 times, the “effect on mRNA level of FGF-2 (in words)” value [6] was “did not have any effect” and the “FGF-2 mRNA Increased Amount [times]” value ([6]; 24 hrs) was 5.7 times. For the same sequence, the “FGF-2 mRNA Increased Amount [times]” value ([6]; 48 hrs) was 6.0 times, the “FGF-2 mRNA Increased Amount [times]” value ([6]; 72 hrs) was 9.4 times and the “endothelial proliferation Increase [times]” value (HAEC; 100 ng/ml) was 1.23 times. For the same sequence, the “endothelial proliferation Increase [times]” value (HAEC; 1 μg/ml) was 1.475 times and the “cell proliferation ability (MTS assay, absorbance at 490 nm)” value (HAEC; F2 peptide 1 to 1000 ng/ml added every day until Day 6, VEGF-A 10 ng/ml, FIG. 9) was “recognized in a dose-dependent manner, similar to VEGF protein; also recorded: stronger activity of enhancing proliferation of HEAC than VEGF”.

Source: patent US7807176B2, “Polypeptide promoting vascular endothelial cell growth” (Genomidea, Inc., priority 2004, dated 2010)
